Test results from PubChem BioAssay (NCI).
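Cells were grown in 96-well plates and exposed to each compound for 48 hours at five concentrations; endpoints were interpolated linearly between bracketing concentrations, or set to the highest concentration if not reached. GI50: concentration for 50% inhibition of growth. TGI is the concentration that stops growth completely.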

Legend:
Assay in all cases: NCI-60 cell line screen, 48 h; in the data active means GI50 below about 0.43 µM; inactive means the rest
[1] = tested on: 786-0 renal
[2] = tested on: A498 renal
[3] = tested on: A549 NSCLC
[4] = tested on: ACHN renal
[5] = tested on: BT-549 breast
[6] = tested on: CAKI-1 renal
[7] = tested on: CCRF-CEM leukemia
[8] = tested on: COLO 205 colon
[9] = tested on: DU-145 prostate
[10] = tested on: EKVX NSCLC
[11] = tested on: HCC-2998 colon
[12] = tested on: HCT-116 colon
[13] = tested on: HCT-15 colon
[14] = tested on: HL-60(TB) leukemia
[15] = tested on: HOP-62 NSCLC
[16] = tested on: HOP-92 NSCLC
[17] = tested on: HS 578T breast
[18] = tested on: HT29 colon
[19] = tested on: IGROV1 ovarian
[20] = tested on: K-562 leukemia
[21] = tested on: KM12 colon
[22] = tested on: LOX IMVI melanoma
[23] = tested on: M14 melanoma
[24] = tested on: MALME-3M melanoma
[25] = tested on: MCF7 breast
[26] = tested on: MDA-MB-231 breast
[27] = tested on: MDA-MB-435
[28] = tested on: MOLT-4 leukemia
[29] = tested on: NCI-H226 lung
[30] = tested on: NCI-H23 lung
[31] = tested on: NCI-H460 lung
[32] = tested on: NCI-H522 lung
[33] = tested on: NCI/ADR-RES ovarian
[34] = tested on: OVCAR-3 ovarian
[35] = tested on: OVCAR-4 ovarian
[36] = tested on: OVCAR-5 ovarian
[37] = tested on: OVCAR-8 ovarian
[38] = tested on: PC-3 prostate
[39] = tested on: RPMI-8226 leukemia
[40] = tested on: RXF 393 renal
[41] = tested on: SF-268 CNS
[42] = tested on: SF-295 CNS
[43] = tested on: SF-539 CNS
[44] = tested on: SK-MEL-2 melanoma
[45] = tested on: SK-MEL-28 melanoma
[46] = tested on: SK-MEL-5 melanoma
[47] = tested on: SK-OV-3 ovarian
[48] = tested on: SN12C renal
[49] = tested on: SNB-19 CNS
[50] = tested on: SNB-75 CNS
[51] = tested on: SR leukemia
[52] = tested on: SW-620 colon
[53] = tested on: T-47D breast
[54] = tested on: TK-10 renal
[55] = tested on: U251 CNS
[56] = tested on: UACC-257 melanoma
[57] = tested on: UACC-62 melanoma
[58] = tested on: UO-31 renal

Cc1cc(I)cc(CN(C)CCN2CCOCC2)c1O
> 82.3 µM: TGI [42]
> 85.6 µM: TGI [46]
> 96.3 µM: TGI [2]
> 100 µM: TGI [1] | TGI [3] | TGI [4] | TGI [5] | TGI [6] | TGI [8] | TGI [9] | TGI [10] | TGI [11] | TGI [12] | TGI [13] | TGI [15] | TGI [16] | TGI [18] | TGI [19] | TGI [20] | TGI [21] | TGI [22] | TGI [23] | TGI [24] | TGI [25] | TGI [26] | TGI [27] | TGI [28] | TGI [29] | TGI [30] | TGI [31] | TGI [32] | TGI [33] | TGI [34] | TGI [35] | TGI [36] | TGI [37] | TGI [38] | TGI [39] | TGI [40] | TGI [41] | TGI [43] | TGI [44] | TGI [45] | TGI [47] | TGI [48] | TGI [49] | TGI [50] | TGI [52] | TGI [53] | TGI [54] | TGI [55] | TGI [56] | TGI [57] | TGI [58]
97.7 µM: TGI [51]
66.6 µM: TGI [14]
inactive: GI50 [1] > 100 µM | GI50 [2] 43.3 µM | GI50 [3] 54.6 µM | GI50 [4] 60.2 µM | GI50 [5] 43.7 µM | GI50 [6] > 61.4 µM | GI50 [7] 0.87 µM | GI50 [8] 71.6 µM | GI50 [9] 61 µM | GI50 [10] 47.1 µM | GI50 [11] > 80.8 µM | GI50 [12] 30.4 µM | GI50 [13] 38.8 µM | GI50 [14] 25.8 µM | GI50 [15] 64.7 µM | GI50 [16] 38 µM | GI50 [17] 23.4 µM | GI50 [18] 33.4 µM | GI50 [19] 37.2 µM | GI50 [20] 28.4 µM | GI50 [21] 44.5 µM | GI50 [22] 65 µM | GI50 [23] 79.3 µM | GI50 [24] > 78.8 µM | GI50 [25] 44.1 µM | GI50 [26] 97.9 µM | GI50 [27] 67.3 µM | GI50 [28] 35.7 µM | GI50 [29] > 76.9 µM | GI50 [30] 62.7 µM | GI50 [31] 43.4 µM | GI50 [32] 79 µM | GI50 [33] 59.8 µM | GI50 [34] 49.9 µM | GI50 [35] 53.2 µM | GI50 [36] > 100 µM | GI50 [37] 75.1 µM | GI50 [38] 34.9 µM | GI50 [39] 30.2 µM | GI50 [40] > 88 µM | GI50 [41] 59.5 µM | GI50 [42] 29.8 µM | GI50 [43] > 100 µM | GI50 [44] > 100 µM | GI50 [45] > 78.1 µM | GI50 [46] 35.3 µM | GI50 [47] > 100 µM | GI50 [48] > 68 µM | GI50 [49] > 87.1 µM | GI50 [50] 53.5 µM | GI50 [51] 12.5 µM | GI50 [52] 55.2 µM | GI50 [53] 27.5 µM | GI50 [54] > 76.8 µM | GI50 [55] 49.7 µM | GI50 [56] 99.5 µM | GI50 [57] > 66.1 µM | GI50 [58] 45.2 µM
> 72.5 µM: TGI [17]
